Molecules are shown by their SMILES.

One data set deals with Pythium ultimum. Kind of data set: Pythium ultimum / liquid culture (seedling damping off). In kind it is cell-based. The conditions noted are these: Globisporangium ultimum; 200 ppm; potato dextrose broth, 24° C., 2-3 days after application; read-out: disease control (inhibition of growth determined photometrically).
Data set [1] deals with Monographella nivalis (Microdochium nivale). Kind of data set: Monographella nivalis (Microdochium nivale) / liquid culture (foot rot cereals). In kind it is cell-based. The conditions noted are these: PDB potato dextrose broth, 24° C., 4-5 days after application, read-out: disease control (inhibition of growth determined photometrically).
For the next data set, the system named is Plasmopara viticola. In words: whole plant or invertebrate. It is filed as in vivo. The conditions noted are these: foliar, read-out: disease control.
For data set [2], the system named is Glomerella lagenarium (Colletotrichum lagenarium). Kind of data set: Glomerella lagenarium (Colletotrichum lagenarium) / liquid culture (anthracnose). The conditions noted are these: Colletotrichum orbiculare, PDB potato dextrose broth, 24° C., 3-4 days after application, read-out: disease control (inhibition of growth measured photometrically). It is filed as cell-based. The method, boiled down:
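Compound was applied at 200 ppm from DMSO solution, then potato dextrose broth carrying cryostored fungal spores was added. Growth inhibition was measured by photometry after 3-4 days of incubation at 24° C.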

For data set [3], the system named is Mycosphaerella arachidis (Cercospora arachidicola). Kind of data set: Mycosphaerella arachidis (Cercospora arachidicola) / liquid culture (early leaf spot). It is filed as cell-based. Conditions: PDB potato dextrose broth, 24° C., 4-5 days after application, read-out: disease control (inhibition of growth determined photometrically). The method, boiled down: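 Test compound, applied at 200 ppm from DMSO solution, was combined with spore-containing potato dextrose broth. Photometric growth inhibition was scored after 4-5 days at 24° C.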

Data set [4] concerns Mycosphaerella graminicola (Septoria tritici). Kind of data set: Mycosphaerella graminicola (Septoria tritici) / liquid culture (Septoria blotch). In kind it is cell-based. The conditions noted are these: Zymoseptoria tritici, PDB potato dextrose broth, 24° C., 4-5 days after application, read-out: disease control (inhibition of growth determined photometrically). The method, boiled down: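 Growth inhibition was read photometrically 4-5 days after application, following incubation at 24° C of fungal conidia in potato dextrose broth over test compound (200 ppm, from DMSO solution) in microtiter plates.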

Another data set deals with Gaeumannomyces graminis. Kind of data set: Gaeumannomyces graminis / liquid culture (take-all of cereals). It is filed as cell-based. Conditions: PDB potato dextrose broth, 24° C., 4-5 days after application, read-out: disease control (inhibition of growth determined photometrically). The method, boiled down:
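Growth inhibition measured photometrically 4–5 days post-application, following incubation at 24 °C. Test compound, applied from DMSO at 200 ppm, mixed with fungal mycelial fragments in potato dextrose broth.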

The next data set concerns Fusarium culmorum. Kind of data set: microbe, parasite or virus in culture. The conditions noted are these: read-out: disease control (inhibition of growth determined visually). It is filed as cell-based.
Data set [5] relates to Thanatephorus cucumeris (Rhizoctonia solani). Kind of data set: Thanatephorus cucumeris (Rhizoctonia solani) / liquid culture (foot rot, damping-off). It is filed as cell-based. Conditions: PDB potato dextrose broth, 24° C., 3-4 days after application, read-out: disease control (inhibition of growth determined photometrically). Put shortly: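 Photometric growth-inhibition readout taken 3-4 days after application, with cultures incubated at 24 °C. Test compound was applied at 200 ppm from DMSO solution to R. solani mycelial fragments in PDB.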

As for `O=C(OCCO)c1cc2c(cc1F)COB2O` [Compound 243], the melting point lay in the range of 274 to 276 °C. The inhibition at 200 ppm in the data set with Pythium ultimum was at least 80%.

Take `CC(=O)COC(=O)c1cc2c(cc1F)COB2O` [Compound 448]: the melting point was 122 to 124 °C. The inhibition at 200 ppm with Pythium ultimum was at least 80%. The inhibition at 200 ppm in data set [1] is at least 80%.

On to `COC(CNC(=O)c1ccc2c(c1)B(O)OC2)OC` [Compound 242], for which the melting point is 148 to 150 °C. Besides, the inhibition at 200 ppm in the data set on Pythium ultimum was at least 80%.

On to `O=C(OCCOc1ccc(Cl)cc1)c1cc2c(cc1Cl)COB2O` [Compound 226], for which, in the data set with Plasmopara viticola, the pest or weed control at 200 ppm is at least 80%. The inhibition at 200 ppm (in the data set with Pythium ultimum; in data set [2]; in data set [3]; in data set [4]; in the data set with Gaeumannomyces graminis; in [1]) was at least 80% in each case. For the same compound, the inhibition at 200 ppm (in the data set on Fusarium culmorum; in [5]) was at least 80% throughout.

Regarding `C[Si](C)(C)C#CCOC(=O)c1cc2c(cc1F)COB2O` [Compound 430], in the data set on Plasmopara viticola, the pest or weed control at 200 ppm was at least 80%. In addition, the inhibition at 200 ppm (in the data set with Pythium ultimum; in data set [3]; in [4]; in the data set with Gaeumannomyces graminis; in the data set with Fusarium culmorum; in data set [5]) was at least 80% each time.

On to `CC(=O)COC(=O)c1cc2c(cc1Cl)COB2O` [Compound 450], for which the melting point was 134 to 136 °C. Moreover, the pest or weed control at 200 ppm in the data set with Plasmopara viticola is at least 80%. The inhibition at 200 ppm in the data set on Pythium ultimum was at least 80%. For the same compound, the inhibition at 200 ppm in the data set with Gaeumannomyces graminis is at least 80%.

`O=C(OCC(Cl)(Cl)Cl)c1cc2c(cc1Cl)COB2O` [Compound 197]: the inhibition at 200 ppm (in the data set on Pythium ultimum; in data set [2]; in [3]; in data set [4]; in data set [1]; in the data set on Fusarium culmorum) was at least 80% in each case. Besides, the inhibition at 200 ppm in data set [5] was at least 80%.

On to `O=C(OCc1ccco1)c1ccc2c(c1)B(O)OC2` [Compound 336], for which the pest or weed control at 200 ppm in the data set on Plasmopara viticola was at least 80%. The inhibition at 200 ppm (with Pythium ultimum; in [2]; in [3]; in data set [4]; in the data set on Gaeumannomyces graminis; in [1]) was at least 80% each time. In addition, the inhibition at 200 ppm (with Fusarium culmorum; in [5]) was at least 80% in each case.

Regarding `O=C(OCCO)c1ccc2c(c1)B(O)OC2` [Compound 244], the melting point was in the range of 122 to 124 °C. Besides, the inhibition at 200 ppm in the data set on Pythium ultimum was at least 80%. In addition, the inhibition at 200 ppm in [1] was at least 80%.

Consider `C#CCCCOC(=O)c1ccc2c(c1)B(O)OC2` [Compound 334], for which, in the data set with Plasmopara viticola, the pest or weed control at 200 ppm was at least 80%. For the same compound, the inhibition at 200 ppm (in the data set on Pythium ultimum; in data set [2]; in [3]; in [4]; with Gaeumannomyces graminis; in [1]) was at least 80% in each case. For the same compound, the inhibition at 200 ppm (in the data set on Fusarium culmorum; in data set [5]) was at least 80% each time.

On to `CC(=O)C(C)OC(=O)c1cc2c(cc1F)COB2O` (stereo not drawn) [Compound 445], for which the melting point is 108 to 110 °C. Further, the inhibition at 200 ppm in the data set with Pythium ultimum is at least 80%.

The compound `COC(CNC(=O)c1cc2c(cc1F)COB2O)OC` [Compound 53] displayed a melting point of 150 to 152 °C. Further, in the data set with Pythium ultimum, the inhibition at 200 ppm is at least 80%.

`CC(=O)C(C)OC(=O)c1ccc2c(c1)B(O)OC2` (stereo not drawn) [Compound 447] showed a melting point of 110 to 112 °C. Further, the inhibition at 200 ppm with Pythium ultimum is at least 80%. Moreover, the inhibition at 200 ppm in the data set with Gaeumannomyces graminis was at least 80%. Moreover, the inhibition at 200 ppm in data set [1] is at least 80%.

As to `C#CCOC(=O)c1cc2c(cc1F)COB2O` [Compound 381], the pest or weed control at 200 ppm with Plasmopara viticola was at least 80%. Also, the inhibition at 200 ppm (in the data set with Pythium ultimum; in data set [2]; in data set [4]; in the data set on Gaeumannomyces graminis; in data set [1]; in the data set with Fusarium culmorum) was at least 80% throughout. Also, in [5], the inhibition at 200 ppm was at least 80%.

Consider `C=CCCOC(=O)c1ccc2c(c1)B(O)OC2` [Compound 329], for which, in the data set with Plasmopara viticola, the pest or weed control at 200 ppm was at least 80%. Further, the inhibition at 200 ppm (with Pythium ultimum; in data set [3]; in data set [4]; with Gaeumannomyces graminis; in [1]; with Fusarium culmorum) was at least 80% in each case. Besides, the inhibition at 200 ppm in data set [5] was at least 80%.

Regarding `CON(C)C(=O)c1cc2c(cc1F)COB2O` [Compound 51], the melting point fell in the range of 144 to 146 °C. Further, the inhibition at 200 ppm with Pythium ultimum was at least 80%.

Regarding `COC(COC(=O)c1cc2c(cc1F)COB2O)OC` [Compound 444], the melting point is 109 to 111 °C. In addition, in the data set with Pythium ultimum, the inhibition at 200 ppm was at least 80%.

As for `O=C(OC1CCC1)c1cc2c(cc1Cl)COB2O` [Compound 205], the inhibition at 200 ppm (in the data set on Pythium ultimum; in [2]; in data set [3]; in data set [4]; in the data set on Gaeumannomyces graminis; in data set [1]) was at least 80% in each case. For the same compound, the inhibition at 200 ppm (in the data set with Fusarium culmorum; in data set [5]) was at least 80% throughout.

For the compound `C#CCCOC(=O)c1cc2c(cc1Cl)COB2O` [Compound 229], the inhibition at 200 ppm (in the data set with Pythium ultimum; in [2]; in data set [3]; in [4]; in the data set with Gaeumannomyces graminis; in [1]) was at least 80% throughout. For the same compound, the inhibition at 200 ppm (with Fusarium culmorum; in data set [5]) was at least 80% each time.

On to `COC(CNC(=O)c1cc2c(cc1Cl)COB2O)OC` [Compound 435], for which the melting point was in the range of 150 to 152 °C.

Turning to `O=C(OCCO)c1cc2c(cc1Cl)COB2O` [Compound 440], the melting point is 270 to 272 °C. Moreover, the inhibition at 200 ppm in the data set on Pythium ultimum is at least 80%.

For the compound `C=CCCOC(=O)c1cc2c(cc1Cl)COB2O` [Compound 203], the inhibition at 200 ppm (in the data set with Pythium ultimum; in data set [2]; in data set [3]; in data set [4]; with Gaeumannomyces graminis; in data set [1]) was at least 80% each time. Further, the inhibition at 200 ppm (with Fusarium culmorum; in [5]) was at least 80% in each case.

The compound `COC(COC(=O)c1ccc2c(c1)B(O)OC2)OC` [Compound 443] returned a melting point of 110 to 112 °C. Further, in the data set with Pythium ultimum, the inhibition at 200 ppm was at least 80%.

`NC(=O)c1cc2c(cc1F)COB2O` [Compound 436] had a melting point of 216 to 218 °C. In addition, in the data set with Pythium ultimum, the inhibition at 200 ppm is at least 80%.

`COc1ccc(OCCOC(=O)c2ccc3c(c2)B(O)OC3)cc1` [Compound 344]: the pest or weed control at 200 ppm in the data set on Plasmopara viticola was at least 80%. The inhibition at 200 ppm (with Pythium ultimum; in data set [2]; in data set [3]; in data set [4]; in the data set on Gaeumannomyces graminis; in data set [1]) was at least 80% each time. Further, the inhibition at 200 ppm (in the data set on Fusarium culmorum; in data set [5]) was at least 80% throughout.

The record behind these values is patent US20170000133A1, “BENZOXABOROLE FUNGICIDES” (SYNGENTA PARTICIPATIONS AG, priority 2013, published 2017).
